In the RepoRT retention time repository (doi:10.1016/j.foodchem.2021.129757) one finds LC retention time data, which are given here for 54 compounds.

Where a name gives a salt, the structure may show the parent alone.

A short description of one data set: RP, Waters ACQUITY UPLC HSS T3, 100 × 2.1 mm, 1.8 µm, 30 °C, 0.4 mL/min, estimated dead time 0.55 min; A: water + 0.1% formic acid, pH 3; B: acetonitrile + 0.1% formic acid, pH 3; gradient (min/%B) 0/0 2/0 15/100 22/100 22.1/0 26/0. As to conditions: stereoisomer not certain.
On to `COc1cc(C2CC(=O)c3c(O)cc(O)cc3O2)ccc1O` (centres undefined) [Homoeriodictyol], for which the LC retention time is 11.7 min.
`COc1cc(CNC(=O)CCCCC=CC(C)C)ccc1O` [Capsaicin]: the LC retention time is 13.7 min.
For `CC(C)CC1NC(=O)C2CCCN2C1=O` (centres undefined) [Cyclo(leucyl-prolyl)], the LC retention time was 9.2 min.
Still for that read-out and setting: the same measure for `COc1cc(O)c2c(=O)c(O)c(-c3ccc(O)c(O)c3)oc2c1` [Rhamnetin]: 12.5 min.
Same read-out and setting: the same measure for `CCCC(C(=O)O)c1cccc(O)c1` (centres undefined) [3-Hydroxyphenylvaleric acid]: 10.9 min; for `COc1ccc(-c2cc(=O)c3c(O)cc(O)cc3o2)cc1O` [Diosmetin]: 11.8 min; for `CC(C)=CCCC(C)=CCOc1c2ccoc2cc2oc(=O)ccc12` [Bergamottin]: 17.4 min.
Still for that read-out and setting: the value for `O=C(O)CCCCc1ccc(O)c(O)c1` [5-(3,4 dihydroxyphenyl)valeric acid] was 9.86 min.
`OCC1OC(Oc2ccc(O)cc2)C(O)C(O)C1O` (centres undefined) [Arbutin]: the LC retention time is 1.34 min.
For `COc1ccc(-c2coc3cc(O)ccc3c2=O)cc1` [Formononetin], the LC retention time was 12.4 min.
On the same count and under the same terms, the same measure for `COc1ccc(-c2cc(=O)c3c(OC)c(OC)c(OC)cc3o2)cc1OC` [Sinensetin]: 12.6 min; for `COc1ccc(-c2cc(=O)c3c(OC)c(OC)c(OC)c(OC)c3o2)cc1OC` [Nobiletin]: 13.2 min.
Take `COc1ccc(-c2oc3cc(O)cc(O)c3c(=O)c2O)cc1` [Kaempferide]: the LC retention time was 13.4 min.
Take `Oc1cc(O)c2c(c1)OC(c1ccc(O)c(O)c1)C(O)C2c1c(O)cc(O)c2c1OC(c1ccc(O)c(O)c1)C(O)C2` (centres undefined) [Procyanidin B2]: the LC retention time was 8.35 min.
On the same count and under the same terms, the same measure for `Cn1c(=O)[nH]c2nc[nH]c2c1=O` [1-Methylxanthine]: 6.63 min; for `O=C(C=CC=Cc1ccc2c(c1)OCO2)N1CCCCC1` [Piperine]: 13.7 min; for `O=Cc1ccc[nH]1` [1H-pyrrole-2-carboaldehyde]: 7.8 min.
Same read-out and setting: the same measure for `COc1c2ccoc2cc2oc(=O)ccc12` [Bergapten]: 12.6 min.
Regarding `COc1ccc(-c2coc3cc(O)cc(O)c3c2=O)cc1` [Biochanin A], the LC retention time is 13.5 min.
Take `O=c1cc(-c2ccc(O)cc2)oc2c(C3OC(CO)C(O)C(O)C3O)c(O)cc(O)c12` (centres undefined) [Vitexin]: the LC retention time is 9.12 min.
Still for that read-out and setting: the same measure for `CN1CCCCC1C(=O)O` (centres undefined) [1-Methylpiperidine-2-carboxylic acid]: 1.1 min.
On the same count and under the same terms, the value for `CC1CCC2(NC1)OC1CC3C4CCC5CC(O)CCC5(C)C4CCC3(C)C1C2C` (centres undefined) [Tomatidine] was 11.8 min.

The next data set in a line: RP, Agilent InfinityLab Poroshell 120 EC-C18, 100 × 3 mm, 2.7 µm, 25 °C, 0.4 mL/min, estimated dead time 1.1 min; A: water + 0.1% formic acid, pH 3; B: acetonitrile + 0.1% formic acid, pH 3; gradient (min/%B) 0/5 10/25 20/40 24/90 25/90 26/5 30/5. As to conditions: stereoisomer not certain.
Consider `O=c1oc2cc(OS(=O)(=O)O)ccc2c2ccccc12` [Urolithin B-3-sulfate], for which the LC retention time was 12.7 min.
On the same count and under the same terms, the value for `O=c1oc2cc(OS(=O)(=O)O)ccc2c2ccc(O)cc12` [Urolithin A-3-sulfate] was 9.67 min; that for `O=c1oc2cc(O)ccc2c2c(O)cc(O)cc12` [Urolithin M7] was 11.2 min.
The same measure, in the same setting: the same measure for `COc1cc(CC(COC2OC(CO)C(O)C(O)C2O)C(COC2OC(CO)C(O)C(O)C2O)Cc2ccc(O)c(OC)c2)ccc1O` (centres undefined) [Secoisolariciresinol diglucoside]: 8.08 min; for `O=C(O)C1OC(Oc2ccc(-c3coc4cc(O)cc(O)c4c3=O)cc2)C(O)C(O)C1O` (centres undefined) [Genistein 4'-O-glucuronide]: 10.7 min; for `Oc1ccc(CCc2cc(O)cc(O)c2)cc1` [Dihydroresveratrol]: 12.8 min.
As for `Cc1c(O)cc2c(c1O)C(=O)c1ccccc1C2=O` [Rubiadin], the LC retention time is 23.8 min.
As for `O=c1c(-c2ccc(O)cc2)coc2cc(OS(=O)(=O)O)ccc12` [Daidzein sulfate], the LC retention time was 9.85 min.
Still for that read-out and setting: the value for `O=S(=O)(O)Oc1ccc(C=Cc2cc(O)cc(O)c2)cc1` [Resveratrol 4'-sulfate] was 10 min; that for `O=C1c2ccccc2C(=O)c2c1cc(O)c(CO)c2O` [lucidin] was 18.6 min.
Still for that read-out and setting: the value for `O=C1CCC(Cc2ccc(O)c(OS(=O)(=O)O)c2)O1` (centres undefined) was 6.5 min; that for `O=C(O)c1c(O)cccc1O` [2,6-Dihydroxybenzoic acid] was 6.49 min; that for `O=C1CCC(Cc2cccc(O)c2)O1` (centres undefined) was 10.6 min.
Same read-out and setting: the same measure for `O=C(O)C1OC(Oc2ccc(-c3coc4cc(O)ccc4c3=O)cc2)C(O)C(O)C1O` (centres undefined) [Daidzein 4'-O-glucuronide]: 8.83 min; for `O=c1oc2cc(O)ccc2c2c(O)c(O)c(O)cc12` [Urolithin M6]: 9.62 min; for `O=S(=O)([O-])Oc1ccc(C2COc3cc(O)ccc3C2)cc1` (centres undefined) [Equol sulfate]: 11.6 min.
For `COc1ccc(C2CC(=O)c3c(O)cc(O)cc3O2)cc1OS(=O)(=O)O` (centres undefined) [Hesperetin 3'-O-sulfate], the LC retention time is 13.3 min.
As to `O=C(O)C1OC(Oc2ccc3c(c2)oc(=O)c2ccc(O)cc23)C(O)C(O)C1O` (centres undefined) [Isourolithin A glucuronide], the LC retention time was 8.44 min.
Still for that read-out and setting: the value for `O=C(O)C1OC(Oc2ccc3c(=O)c(-c4ccc(O)cc4)coc3c2)C(O)C(O)C1O` (centres undefined) [Daidzein 7-O-glucuronide] was 7.51 min; that for `O=c1oc2cc(O)ccc2c2cc(O)ccc12` [Isourolithin  A] was 12.7 min; that for `COc1ccc(C2CC(=O)c3c(O)cc(OS(=O)(=O)O)cc3O2)cc1O` (centres undefined) [Hesperetin 7-sulfate] was 12.6 min.

Another data set can be described thus: RP, Agilent ZORBAX Eclipse XDB-C18, 100 × 2.1 mm, 1.8 µm, 50 °C, 0.4 mL/min, estimated dead time 0.55 min; A: water + 0.1% formic acid, pH 3; B: methanol + 0.1% formic acid, pH 3; gradient (min/%B) 0/2 10/100 14.5/100 14.51/2 16.5/2. Particulars: stereoisomer not certain.
Take `C=C1CCC(O)CC1=CC=C1CCCC2(C)C1CCC2C(C)C=CC(C)C(C)C` (centres undefined) [Ergocalciferol]: the LC retention time was 11.8 min.
`O=C([O-])C(O)c1ccccc1` (centres undefined) [Mandelic acid]: the LC retention time is 3.01 min.
Still for that read-out and setting: the same measure for `O=C(O)CCCCC(=O)O` [Adipic acid]: 2.63 min; for `CC1=C(/C=C/C(C)=C/C=C/C(C)=C/C=C/C=C(C)/C=C/C=C(C)/C=C/C2=C(C)CCCC2(C)C)C(C)(C)CCC1` [beta-carotene]: 13.8 min.
Still for that read-out and setting: the value for `COc1c(O)cccc1O` [2-Methoxyresorcinol] was 2.68 min.
Take `O=C(O)Cc1cc(O)ccc1O` [Homogentisic acid]: the LC retention time was 1.82 min.
Take `O=C([O-])CCc1ccccc1O` [3-(2-Hydroxyphenyl)propionic acid]: the LC retention time was 4.8 min.
`NCC(O)c1ccccc1` (centres undefined) [2-Amino-1-phenylethanol]: the LC retention time was 1.42 min.
Regarding `O=C(O)CNC(=O)C=Cc1ccccc1` [Cinnamoylglycine], the LC retention time is 4.75 min.
On the same count and under the same terms, the value for `CC1NCCc2cc(O)c(O)cc21` (centres undefined) [Salsolinol] was 1.57 min; that for `O=C(O)Cc1cc(O)cc(O)c1` [3,5-Dihydroxyphenylacetic acid] was 2.21 min.
